# Test results as given in US20100075993A1, “SMALL MOLECULE INHIBITORS AGAINST WEST NILE VIRUS REPLICATION” (DREXEL UNIVERSITY, priority 2005, published 2010).
# Columns and labels:
# WNV RNA = assay: Northern blot of WNV RNA in compound treated replicon cells; assay type: cell-based, West Nile virus; conditions: for WNV RNA replication / RNA level (northern blot): 10 μM, 48 hours; for WNV RNA reduction: 48-hour treatment, compounds 10 μM
# Method: FIG. 6 is a picture of a Northern blot gel of compound treated WNV replicon cells. 4×10^4 cells were seeded in 24 well plates. After 24 hours, the cells were treated with DMSO (lanes 2, 3) or the non-specific inhibitors, MPA (lane 1) or the compounds […] (lane 4), 18-B3 (lane 5) or 52-F2 (lane 6). After 48 hours, total RNA were isolated, separated on denaturing agrose gels and transferred to nylon membrane. Total RNA from a non-replicon cell (Huh-7 cell) was loaded in lane 7 as negative control. The membrane was probed with [^32P]-dCTP-labeled WNV NS5 and human beta-actin. The signal was quantified using a BioRad phosphoimager and WNV RNA level was calculated using beta-actin as a reference.
# To confirm that the compounds can indeed inhibit WNV RNA replication, the WNV RNA level in the replicon cells treated with compounds by Northern blot analysis. Several hit compounds, 18-B3, 275-F9, 275-D9, 52-F2 and MPA were selected to treat the BHK 26.5 cells at 10 μM. […] The “hit” compounds 18-B3 and 275-F9 reduced WNV RNA by 1.5 and 2 fold, respectively (FIG. 6, lanes 4, 5). 18-B3 is one of the nine compounds that have similar structures while 275-F9 is one from another class of four compounds (Table 3).
# Total cellular RNA was extracted by using the RNEASY kit (Qiagen NV, Netherlands). Northern blot analysis was done according to the protocol of Gu et al. 2002 (8). Briefly, 5 μg total RNA was electrophoresed through a 1.0% agarose gel containing 2.2M formaldehyde, transferred to a nylon membrane and immobilized by UV cross-linking (Stratagene, La Jolla, Calif.). After pre-hybridization in 5 ml of QuickHyb (Amersham, Piscataway, N.J. GE Healthcare, Giles, UK), [2P] dCTP-labeled probe made by random primer labeling of a 2.7 kb NS5 DNA fragment and a human beta-actin DNA at 65° C. The membrane was washed twice in 2×SSC/0.1% SDS for 10 min at room temperature and twice in 0.1×SSC/0.1% SDS for 15 min at 68° C. Membranes were exposed to Molecular Imager FX phosphoimager (BioRad, Hercules, Calif.) and the radiographic signals were collected and quantitated.
# WNV replicon = WNV replicon luciferase assay in BHK 26.5 cells (HTS, re-test, IC50); assay type: cell-based, West Nile virus; conditions: for IC50: West Nile virus, 24 h; for Fold decrease (HTS) / Fold decrease (Re-test): luciferase activity; for Fold decrease (HTS): 10 μM compound, 24 hours, BHK 26.5 cells; for Fold decrease (Re-test): re-checked at a single 10 μM concentration
# Method: Ten micromolar concentrations of a selected compound were incubated with BHK 26.5 cells expressing luciferase whose activity is dependent upon WNV replicon replication (FIG. 1A). Primary “hits” were defined by the ability to reduce the amount of luciferase enzyme activity by more than 50%, compared to controls.
# To quantify and rank the activity of the 23 remaining compound “hits”, a serial dilution of each compound was incubated with WNV replicon cells to determine the concentration that inhibits 50% of the luciferase readout (IC50s). […] A number of compounds had significant effect only at the highest, 10 μM concentration. However, several compounds had IC50s between 2 and 5 (Table 3), which is very reasonable for primary HTS hits from a compound library. Only a few compounds could cause 90% inhibition in the replicon cells at the concentrations tested.
# (§1) Replicon-harboring cells were plated 96-well plates at 10,000 cells per well in MEM plus 3% FBS. 24 hours after plating, compounds were added to the wells by a Robotic liquid handler (Biomek NX) to a final concentration of 10 μM and 1% DMSO. For each 96 well plate, A1 to A8 were left open, H1 to H4 contained 1% DMSO, H5-H8 contained Mycophenolic acid (Sigma-Aldrich, St. Louis, Mo.), which was included as positive controls. After 24 hours of treatment, the media were removed and the luciferase activity expressed in the replicon cells was quantified. When cyto-toxicity was measured, duplicate 96 well plates were plated with BHK 26.5 replicon cells. One plate was used for luciferase assay and one plate was used for measuring toxicity using MTT assay.
# Luciferase assay was performed by using the STEADY GLO reagent (Promega Corp. Madison, Wis.) according to the manufacturer's recommendation with slight modifications. Briefly, the culture media from the 96 wells were removed by dumping on paper towels.
# 100 μl of a 1:1 mixture of luciferase regent and culture media were added to the plate. After 5-minute incubation, the luminescence was read on a TOPCOUNT (PerkinElmer, Wellesley, Mass.).
# BHK 26.5 replicon cells = assay: MTT toxicity assay on BHK 26.5 replicon cells; assay type: cell-based; conditions: MTT assay
# Text: The HTS strategy follows the flowchart outlined in FIG. 2. 35,000 compounds were screened from a chemical library described below, using a cutoff of 50% reduction in luminescence readout as the criteria for further study. Upon completion of the screen, approximately 1100 compounds were selected, making the hit rate of 3%. This is considerably higher than expected, implying many false positive and/or cytotoxic compounds. Nevertheless, the compounds were picked out from the “daughter” plates and re-checked at a single 10 μM concentration. In addition, a duplicate 96 well plates were also plated and the toxicity of the compounds was determined in an MTT assay. Upon completion of these assays, most compounds were disqualified as either false positives or being toxicity to cells. As a result, only a small number of compounds were further analyzed directly from the “mother” plate stock. After IC50 determination and secondary assay to rule out luciferase inhibitors, 23 “hits” were identified.
# as §1
# (§2) Compound toxicity was determined by MTT assay. For the MTT assay, the cell medium was removed and the monolayers were incubated with 100 μl/well of 0.5 mg/ml MTT for 6 h at 37° C. The MTT solution was then aspirated and 100 μl/well of the 10% SDS (in 0.01N HCl) was added, followed by spectrophotometric quantitation (570 nm) of the insoluble MIT reaction product.
# WNV NS3 protein = assay: Western blot of WNV protein in compound treated replicon cells; assay type: cell-based, West Nile virus; conditions: 48-hour treatment, up to 10 uM; MPA 2.5 ug/ml
# Method: Mycophenolic acid (MPA) was used as positive control in the experiment. 4×10^4 cells were seeded in 24 well plates 24 hours before the various concentrations of compounds were added. After 48 hours of drug treatment, SDS-Sample buffer were added to the wells to lyse the cells. The protein samples were separated on SDS-PAGE and transferred to PVDF membrane. Viral protein was detected by probing with a monoclonal antibody against WNV. The same membrane was stripped and probed for beta-actin with the signals shown at the bottom of the blot.
# Although it is reassuring that multiple tests have yielded similar positive results, the ability of the compounds to inhibit WNV replication was further assessed in secondary assays. In the western blot analysis shown in FIG. 5, total cell proteins were prepared from WNV replicon cells treated with the hit compounds and the viral protein NS3 was detected with a monoclonal […] against West Nile virus (15). The same blots were stripped and probed for beta-actin to show equal loading. […] When compared with the IC50 determined for these compounds in the luciferase assay, there was a good correlation between the luciferase reduction and the viral protein reduction.
# Total cell lysates from replicon cells were harvested from replicon cells in 1×SDS sample buffer. The lysates were heated at 70° C. for 10 min in the presence of DTT before electrophoresis on a 10% Tris-glycine SDS polyacrylamide gel (Invitrogen) in 1× Tris-glycine buffer. The protein was transferred to PVDF (Invitrogen) membrane. Following the transfer, the membrane was rinsed once with TBS containing 0.5% Tween-20 (TBS-Tween) and blocked in TBS-Tween containing 5% non-fat milk for 1 h. After washing with PBS-Tween, the membrane was incubated with the primary WNV antibody (15) at 1:3000 dilutions for 1 h at 25° C. Prior to incubation with HRP conjugated-mouset IgG secondary antibody (Amersham, Life Science, Piscataway, N.J.) diluted 1:5000, the blot was washed in PBS-Tween. Following the secondary antibody incubation, the blot was washed again and treated with Super Signal Chemiluminescent Reagent (Pierce) according to the manufacturer's protocol and exposed to X-ray film. For controls, the blots were stripped and re-probed with an antibody to beta-actin (Chemicon), which was detected with a goat anti-mouse horseradish peroxidase conjugate.
# WNV = WNV yield reduction assay (live virus) on BHK cells; assay type: cell-based, West Nile virus
# Method: The antiviral assay for the 309-F6 compounds was conducted on BHK cells. The virus produced in the presence of 1% DMSO or various concentrations of compounds was tittered on Vero cells. The amount of virus relative to the 1% DMSO control was plotted on the y-axis; the concentration of the compound 309F6 is shown in μM on the x-axis. Data from two independently treated wells (Test 1 and Test 2) are shown.
# To measure activity against live WNV, BHK cells were plated in 96-well plates at a concentration of 12,000 cells/well. One day later the cells were infected with WNV for 1 h at an MOI of 0.05. The cells were then washed once and re-fed with fresh DMEM containing dilutions of the test compound. Plates were then incubated at 37° C. for 48 h, the supernatant collected and the WNV produced titered. For virus titration, Vero cells were plated in 96-well plates at 8000 cells/well and incubated overnight. The Vero cell monolayer were then infected for 1 h with various dilutions of the WNV supernatant, overlaid with media containing 0.6% tragacanth (ICN, CA) and incubated at 37° C. for 48 h. The culture media was then aspirated; the plate was rinsed, air-dried, and fixed with 50 μl/well acetone/methanol (50:50). Viral foci were detected for enumeration by immunostaining as described previously (15).
# BHK cells = assay: toxicity (MTT, CC50) in BHK cells parallel to WNV infection assay; assay type: cell-based; conditions: 20 μM, parallel toxicity assessment
# Method: Several of these original compounds selected from the WNV replicon based screen were evaluated in an antiviral assay against WNV live virus. […] Modifications of this compound would be further investigated
# The toxicity of 101-G7 was also measured by MTT assay and CC50 was calculated. 40 μM is highest concentration used.
# as §2
smiles,measurement,setting,value
"COc1ccc(-n2nc3c(c2NC(=O)c2cccs2)CSC3)cc1 [Compound 18-B3, Thiophene-2-carboxylic acid [2-(4-methoxy-phenyl)-2,6-dihydro-4H-thieno[3,4-c]pyrazol-3-yl]-amide]",WNV RNA replication / RNA level (northern blot),WNV RNA,clearly inhibited the WNV RNA replication
same,WNV RNA reduction,WNV RNA,1.5 fold
same,IC50,WNV replicon,5 µM
same,Fold decrease (HTS),WNV replicon,3 Fold
same,Fold decrease (Re-test),WNV replicon,2 Fold
same,Toxicity (uM)*,BHK 26.5 replicon cells,>30 µM
"COc1ccc(-n2nc3c(c2NC(=O)c2ccc(S(=O)(=O)N4CCCCC4)cc2)CSC3)cc1 [Compound 18-D2, N-[2-(4-Methoxy-phenyl)-2,6-dihydro-4H-thieno[3,4-c]pyrazol-3-yl]-4-(piperidine-1-sulfonyl)-benzamide]",IC50,WNV replicon,7.5 µM
same,Fold decrease (HTS),WNV replicon,3 Fold
same,Fold decrease (Re-test),WNV replicon,2.8 Fold
same,WNV NS3 protein level (western blot),WNV NS3 protein,dose dependency is also clearly seen
same,Toxicity (uM)*,BHK 26.5 replicon cells,>30 µM
"Cc1nc2c(C(=O)NCCC3=CCCCC3)cnn2c(O)c1Cc1ccccc1Cl [Compound 275-F9, 6-(2-Chloro-benzyl)-7-hydroxy-5-methyl-pyrazolo[1,5-a]pyrimidine-3-carboxylic acid (2-cyclohex-1-enyl-ethyl)-amide]",WNV RNA replication / RNA level (northern blot),WNV RNA,clearly capable of reducing the WNV RNA level
same,WNV RNA reduction,WNV RNA,2 fold
same,IC50,WNV replicon,7.5 µM
same,Fold decrease (HTS),WNV replicon,27 Fold
same,Fold decrease (Re-test),WNV replicon,4.5 Fold
same,Toxicity (uM)*,BHK 26.5 replicon cells,>10 µM
"CCN(CCNC(=O)c1cnn2c(O)c(Cc3ccccc3F)c(C)nc12)c1ccccc1 [Compound 309-F6, 6-(2-Fluoro-benzyl)-7-hydroxy-5-methyl-pyrazolo[1,5-a]pyrimidine-3-carboxylic acid [2-(ethyl-phenyl-amino)-ethyl]-amide]",IC50,WNV replicon,10 µM
same,Fold decrease (HTS),WNV replicon,7 Fold
same,Fold decrease (Re-test),WNV replicon,6 Fold
same,WNV NS3 protein level (western blot),WNV NS3 protein,reduced viral protein only at the 10 uM
same,WNV titer reduced,"WNV; 20 μM, BHK cells, titered on Vero cells",approximately 90%
same,selective index,WNV; estimated,more than 8
same,activity in the WNV infection assay,WNV; live WNV,inhibited WNV production
same,Toxicity (uM)*,BHK 26.5 replicon cells,>10 µM
same,cell toxicity,BHK cells,only slight cell toxicity
"Cc1ccc(CCNC(=O)c2cnn3c(O)c(Cc4ccccc4F)c(C)nc23)cc1 [Compound 310-B3, 6-(2-Fluoro-benzyl)-7-hydroxy-5-methyl-pyrazolo[1,5-a]pyrimidine-3-carboxylic acid (2-p-tolyl-ethyl)-amide]",IC50,WNV replicon,10 µM
same,Fold decrease (HTS),WNV replicon,17 Fold
same,Fold decrease (Re-test),WNV replicon,4 Fold
same,WNV NS3 protein level (western blot),WNV NS3 protein,reduced viral protein only at the 10 uM
same,Toxicity (uM)*,BHK 26.5 replicon cells,>10 µM
"COc1ccc(CC(=O)Nc2ccc(C(=N)NO)cc2)cc1 [Compound 331-D11, N-[4-(N-Hydroxycarbamimidoyl)-phenyl]-2-(4-methoxy-phenyl)-acetamide]",IC50,WNV replicon,5 µM
same,Fold decrease (HTS),WNV replicon,4 Fold
same,Fold decrease (Re-test),WNV replicon,2 Fold
same,WNV NS3 protein level (western blot),WNV NS3 protein,dose dependency is also clearly seen
same,Toxicity (uM)*,BHK 26.5 replicon cells,>30 µM
